One data set deals with GLP-1R (Homo sapiens, UniProt P43220). Put plainly: Agonist activity on GLP-1R, HTRF cAMP detection in stably transfected GLP-1R/HEK293 cells. Type of data set: cell-based. Particulars: for EC50: 30 min incubation; for Max activity: relative to top concentration of reference GLP-1(7-37). (Time-resolved FRET reads energy transfer from a long-lived donor to a nearby acceptor.)

Data set [1] is described as follows: Pharmacokinetic study in mice. Type of data set: in vivo, CD-1 mice. Particulars: for clearance rate compared with PF-06882961 / exposure compared with PF-06882961: mice; for half-life: read-out: T½ (converted); for Vd: read-out: Vdss. As for the experimental part: The pharmacokinetic properties of some compounds of the present invention were evaluated in mice pharmacokinetic experiments. SPF male CD-1 mice from Beijing Vital River Laboratory Animal Technology Co., Ltd were used with 6 mice in each group. Compounds were dissolved in 10% solutol/90% saline. A single intravenous administration was given at a dose of 1 mg/kg in a volume of 1 mL/kg. A single intragastric administration was given at a dose of 5 mg/kg in a volume of 1 mL/kg. Animals were fasted overnight prior to the administration and resumed feeding 4 hours after administration, ad libitum to water. Blood was collected at 0.0830, 0.25, 0.5, 1, 2, 4, 6, 8 and 24 hours after dosing. About […] of whole blood was collected from the saphenous vein of animals and placed in an EDTA-K2 anticoagulation tube. The samples were centrifuged at 4° C. and 4200 rpm for 5 min, and the plasma was transferred into a centrifuge tube and stored at −80° C. until analysis. For plasma sample analysis, the test compounds and internal standards (Labetalol & tolbutamide & Verapamil & dexamethasone & glyburide & Celecoxib) were extracted from mice plasma by protein precipitation method with acetonitrile, and the extracts were analyzed by LC/MS/MS. The measured plasma concentration-time data of individual animals were analyzed with the non-compartmental model of Phoenix WinNonlin 7.0 (Pharsight, USA) software, and the pharmacokinetic parameters of mice were obtained as follows: maximum (peak) plasma drug concentration Cmax; Peak time Tmax; half-life T1/2 and area under the plasma concentration-time curve extrapolated to infinity AUC0-inf.

The next data set relates to cynomolgus monkeys. Put plainly: Intravenous glucose tolerance (IVGTT) experiment in cynomolgus monkey. Type of data set: in vivo. Particulars: single oral dose of 100 mg/kg, IVGTT 2 hours after dosing. How it is done:
The compounds were dissolved in 10% Solutol HS15+90% Saline by vortex ultrasound. Vehicle was 10% Solutol HS15+90% Saline.
Male cynomolgus monkeys, 10-15 years old, weighing 6-13 kg. Healthy animals were selected for efficacy studies according to alanine aminotransferase (ALT), aspartate aminotransferase (AST), triglyceride (TG), total cholesterol (TC), high density lipoprotein (HDL), low density lipoprotein (LDL), glycosylated hemoglobin (HbA1c), body weight (BW).
After 1 week of acclimation, the IVGTT baseline before administration was measured, and the animals were grouped according to the insulin and blood glucose results of the IVGTT. The detailed information of treatment was as follows:
IVGTT was started after 2 hours post of compound dosing. Blood were collected-at −15 min, 0 min (before sugar administration), and 2, 5, 7, 10, 20, and 30 min after sugar administration. And the blood glucose level were measured.
Data was analyzed by Graphpad Prism 6 and the statistical method was one-way ANOVA Dunnett's test. Compared with the vehicle group, p<0.05 was considered significant difference. * means p<0.05, ** means p<0.01, *** means p<0.001.

Data set [2] is described as follows: Pharmacokinetic study in monkeys. In kind it is in vivo, cynomolgus monkeys. The settings on record: male cynomolgus monkeys. As for the experimental part: The pharmacokinetic properties of compounds of the present invention were evaluated in monkey pharmacokinetic experiments with 3 male Non-naive cynomolgus monkeys per group. Compounds were dissolved in 10% solutol/90% saline. For single intravenous administration, the dose was 1 mg/kg, and the administration volume was 1 mL/kg. For single intragastric administration, the dose was 5 mg/kg, and the administration volume was 1 mL/kg. Animals were fasted overnight with free water before the experiment and resumed feeding 4 hours after administration. Blood was collected at 0.0830, 0.25, 0.5, 1, 2, 4, 6, 8 and 24 hours after dosing. About 0.4 mL of whole blood was collected from the animal's forearm vein and placed in an EDTA-K2 anticoagulant tube. The samples were centrifuged at 4° C. and 4200 rpm for 5 min, and the plasma was transferred to a centrifuge tube and stored at −80° C. until analysis. For plasma sample analysis, the test compounds and internal standards (Labetalol & tolbutamide & Verapamil & dexamethasone & glyburide & Celecoxib) were extracted from monkey plasma by protein precipitation method with acetonitrile, and the extracts were analyzed by LC/MS/MS. Measured plasma concentration-time data in individual animals were analyzed using the non-compartmental model of Phoenix WinNonlin 7.0 (Pharsight, USA) software to obtain the following pharmacokinetic parameters: maximum (peak) plasma drug concentration Cmax; time to peak Tmax; Half-life T1/2 and area under the plasma concentration-time curve extrapolated to infinity AUC0-inf.

The mark [3] stands for this setting: mouse, plasma, male CD-1 mice, 1 mg/kg iv.
The mark [4] stands for this setting: mouse, plasma, male CD-1 mice, 1 mg/kg iv, read-out: AUC0-inf.
Where [5] appears, read: mouse, plasma, male CD-1 mice, 5 mg/kg po, read-out: AUC0-inf.
Where [6] appears, read: mouse, plasma, male CD-1 mice, 5 mg/kg po, read-out: Cmax.
Setting [7] is: mouse, plasma, male CD-1 mice, 5 mg/kg po.

Where two headings read alike, the source gives them in different places.

Sequence of GLP-1R (P43220 24-463): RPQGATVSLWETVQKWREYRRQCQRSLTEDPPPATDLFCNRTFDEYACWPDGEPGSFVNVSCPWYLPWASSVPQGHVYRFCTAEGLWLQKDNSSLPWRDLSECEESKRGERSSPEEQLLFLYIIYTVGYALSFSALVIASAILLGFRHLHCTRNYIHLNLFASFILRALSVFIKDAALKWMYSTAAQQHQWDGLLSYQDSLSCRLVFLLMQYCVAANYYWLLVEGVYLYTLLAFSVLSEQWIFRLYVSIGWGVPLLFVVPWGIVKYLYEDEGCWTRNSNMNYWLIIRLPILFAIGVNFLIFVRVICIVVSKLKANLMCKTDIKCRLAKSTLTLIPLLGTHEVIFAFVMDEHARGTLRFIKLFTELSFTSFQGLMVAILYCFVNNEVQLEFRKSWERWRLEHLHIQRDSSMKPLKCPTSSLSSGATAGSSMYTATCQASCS

For the compound `N#Cc1ccc(OCc2cccc(OC3CCN(Cc4nc5c(F)cc(C(=O)O)cc5n4C[C@@H]4CCO4)CC3)n2)c(F)c1` [Compound 56, (S)-2-((4-((6-((4-cyano-2-fluorophenoxy)methyl)pyridin-2-yl)oxy)piperidin-1-yl)methyl)-4-fluoro-1-(oxetan-2-ylmethyl)-1H-benzo[d]imidazole-6-carboxylic acid], on GLP-1R, the EC50 (commonly the concentration at which the effect is half-maximal) came to 0.21 nM and the Max activity worked out at 124.9%. Further, in data set [1] (male CD-1 mice, 5 mg/kg po), the F came out at 54.4%. Also, in data set [1], the “clearance rate compared with PF-06882961” value is reported as “lower clearance rates” and the “exposure compared with PF-06882961” value is reported as “higher exposure”. For the same compound, in data set [1] (setting [3]), the clearance (in general, the volume of plasma or blood freed of the substance per unit of time) worked out at 21.7 mL/min/kg; the half-life is 2.3 h; the Vd was found to be 1.2 L/kg. Besides, in data set [1] (setting [4]), the AUC(0-inf) stood at 771 ng·h/mL. Further, the AUC(0-inf) in data set [1] (setting [5]) was 2100 ng·h/mL. Further, the Cmax (as a rule, the highest concentration seen after dosing) in data set [1] (setting [6]) came to 1640 ng/mL. Also, the half-life in data set [1] (setting [7]) was 1 h.

With `O=C(O)c1cc(F)c2nc(CN3CCC(Oc4cccc(COc5ccc(Cl)cc5F)n4)CC3)n(C[C@@H]3CCO3)c2c1` [Compound C23, (S)-2-((4-((6-((4-chloro-2-fluorophenoxy)methyl)pyridin-2-yl)oxy)piperidin-1-yl)methyl)-4-fluoro-1-(oxetan-2-ylmethyl)-1H-benzo[d]imidazole-6-carboxylic acid], on GLP-1R, the EC50 stood at 0.249 nM and the Max activity is reported as 109.1%. Besides, the F in data set [1] (male CD-1 mice, 5 mg/kg po) stood at 45.1%. For the same compound, in data set [1], the “clearance rate compared with PF-06882961” value is listed as “lower clearance rates” and the “exposure compared with PF-06882961” value was “higher exposure”. Further, in data set [1] (setting [3]), the clearance amounted to 15 mL/min/kg, the half-life is 1 h and the Vd was found to be 1 L/kg. Further, in data set [1] (setting [4]), the AUC(0-inf) was found to be 1140 ng·h/mL. Further, the AUC(0-inf) in data set [1] (setting [5]) was 2580 ng·h/mL. The Cmax in data set [1] (setting [6]) came out at 2190 ng/mL. The half-life in data set [1] (setting [7]) was 1.4 h.

For `N#Cc1ccc(COc2cccc(OC3CCN(Cc4nc5ccc(C(=O)O)cc5n4C[C@@H]4CCO4)CC3)n2)c(F)c1` [Compound S2, (S)-2-((4-((6-((4-cyano-2-fluorobenzyl)oxy)pyridin-2-yl)oxy)piperidin-1-yl)methyl)-1-(oxetan-2-ylmethyl)-1H-benzo[d]imidazole-6-carboxylic acid], on GLP-1R, the response was half-maximal at 5.58 nM (EC50) and the Max activity was found to be 139.9%.

Turning to `N#Cc1ccc(COc2cccc(OC3CN(Cc4nc5ccc(C(=O)O)cc5n4C[C@@H]4CCO4)C3)n2)c(F)c1` [Compound S3, (S)-2-((3-((6-((4-cyano-2-fluorobenzyl)oxy)pyridin-2-yl)oxy)azetidin-1-yl)methyl)-1-(oxetan-2-ylmethyl)-1H-benzo[d]imidazole-6-carboxylic acid], on GLP-1R, it took 2170 nM to reach a half-maximal effect (EC50) and the Max activity amounted to 70.1%.

As to `CCn1cncc1Cn1c(CN2CCC(Oc3cccc(OCc4ccc(C#N)cc4F)n3)CC2)nc2ccc(C(=O)O)cc21` [Compound S4, 2-((4-((6-((4-cyano-2-fluorobenzyl)oxy)pyridin-2-yl)oxy)piperidin-1-yl)methyl)-1-((1-ethyl-1H-imidazol-5-yl)methyl)-1H-benzo[d]imidazole-6-carboxylic acid], at GLP-1R, a half-maximal response (EC50) required 0.29 nM and the Max activity was 106.9%.

With `N#Cc1ccc(COc2cccc(OC3CCN(Cc4nc5ccc(C(=O)O)cc5n4C[C@@H]4CCO4)CC3)c2)c(F)c1` [Compound S5, (S)-2-((4-(3-((4-cyano-2-fluorobenzyl)oxy)phenoxy)piperidin-1-yl)methyl)-1-(oxetan-2-ylmethyl)-1H-benzo[d]imidazole-6-carboxylic acid], on GLP-1R, the response was half-maximal at 15.4 nM (EC50) and the Max activity was 125.2%.

As to `N#CCC1(Cn2c(CN3CCC(Oc4cccc(OCc5ccc(C#N)cc5F)c4)CC3)nc3c(F)cc(C(=O)O)cc32)CC1` [Compound S6], on GLP-1R, the EC50 came to 2.6 nM and the Max activity was found to be 114.9%.

In the case of `N#CCC1(Cn2c(CN3CCC(Oc4cccc(OCc5ccc(C#N)cc5F)n4)CC3)nc3c(F)cc(C(=O)O)cc32)CC1` [Compound S20], on GLP-1R, the EC50 was 0.962 nM and the Max activity stood at 129.1%.

As for `N#Cc1ccc(COc2cccc(COC3CCN(Cc4nc5ccc(C(=O)O)cc5n4C[C@@H]4CCO4)CC3)n2)c(F)c1` [Compound S22, (S)-2-((4-((6-((4-cyano-2-fluorobenzyl)oxy)pyridin-2-yl)methoxy)piperidin-1-yl)methyl)-1-(oxetan-2-ylmethyl)-1H-benzo[d]imidazole-6-carboxylic acid], at GLP-1R, the EC50 came out at 731 nM and the Max activity was 92.7%.

For `CCn1cncc1Cn1c(CN2CCC(Oc3cccc(OCc4ccc(C#N)cc4F)c3)CC2)nc2ccc(C(=O)O)cc21` [Compound S23, 2-((4-(3-((4-cyano-2-fluorobenzyl)oxy)phenoxy)piperidin-1-yl)methyl)-1-((1-ethyl-1H-imidazol-5-yl)methyl)-1H-benzo[d]imidazole-6-carboxylic acid], at GLP-1R, a half-maximal effect (EC50) was put at 1.47 nM and the Max activity was 98.0%.

With `O=C(O)/C=C/c1ccc2nc(CN3CCC(Oc4ccc(F)c(OCc5ccc(Cl)cc5F)n4)CC3)n(C[C@@H]3CCO3)c2c1` [Compound S36], on GLP-1R, a half-maximal response (EC50) required 150 nM and the Max activity was 114.2%.

`N#CCC1(Cn2c(CN3CCC(Oc4ccc(F)c(OCc5ccc(Cl)cc5F)n4)CC3)nc3c(F)cc(C(=O)O)cc32)CC1` [Compound S41, 2-((4-((6-((4-chloro-2-fluorobenzyl)oxy)-5-fluoropyridin-2-yl)oxy)piperidin-1-yl)methyl)-1-((1-(cyanomethyl)cyclopropyl)methyl)-4-fluoro-1H-benzo[d]imidazole-6-carboxylic acid]: on GLP-1R, the midpoint of the response, the EC50, lay at 21.7 nM and the Max activity was determined as 94.8%.

For `N#Cc1ccc(COc2cccc(C3CCN(Cc4nc5ccc(C(=O)O)cc5n4C[C@@H]4CCO4)CC3)n2)c(F)c1` [PF-06882961, reference compound], in data set [1] (male CD-1 mice, 1 mg/kg iv), the AUC(0-inf) was 370 ng·h/mL; the Cl amounted to 45.1 mL/min/kg; the T½ is 0.3 h; the Vdss (in general, a proportionality between amount in the body and measured concentration, not a real space) came to 1 L/kg. In data set [1] (male CD-1 mice, 5 mg/kg po), the AUC(0-inf) is 366 ng·h/mL, the Cmax came out at 299 ng/mL, the F is 19.8% and the T½ worked out at 2.0 h. Further, the “blood glucose level in IVGTT” value in the data set on cynomolgus monkeys is “significantly lower the blood glucose level”. Moreover, in data set [2] (1 mg/kg iv), the AUC(0-inf) was determined as 1167 ng·h/mL, the Cl was 14.4 mL/min/kg, the T½ is listed as 1.1 h and the Vdss worked out at 0.3 L/kg. In data set [2] (5 mg/kg po), this compound came in with an AUC(0-inf) of 344 ng·h/mL, a Cmax of 58.8 ng/mL, an F of 5.9% and a T½ of 2.8 h.

On to “Glucagon-like peptide-1 [GLP-1(7-37), reference compound]”, for which the Max activity on GLP-1R is 98.1%.

For the origin of these results see patent US20250282757A1, “ARYL ETHER-SUBSTITUTED HETEROCYCLIC COMPOUNDS AS GLP1R AGONISTS” (MINDRANK AI LTD., priority 2021, published 2025).
